Data on one substance can be found in patent publication US7442547B2, “Dendritic cells and the uses thereof in screening cellular targets and potential drugs” (Sekmed, S.R.L., priority 2001, dated 2008).

The assay relates to D1 cells. Nature of the assay: Growth of D1 cells after stimulation (number of viable cells). The format is cell-based, mouse. The source says:
D1 cells were stimulated either with LPS or TNF-α for the indicated time. The number of viable cells at the indicated time points is expressed as percentage of seeded cells. LPS, LPS-stimulated cells; TNF-α, TNF-α-stimulated cells; NS, non-stimulated cells. Standard deviations of five independent experiments are reported.
Cells and reagents. The D1 cells were derived from murine splenic DC and maintained in vitro in IMDM supplemented with 30% R1 conditional medium as previously described. LPS (Escherichia coli sero- type 026:B6) was purchased from Sigma Chemical Co. and used at 10 μg/ml. Muriner TNF-α (Genetech Inc., San Francisco. Calif.) was used at 100 U/ml. Cells were grown and harvested at the same time.

With tumor necrosis factor [TNFα], the “doubling time of activated D1 cells” value was found to be 130 h. For the setting “after stimulation”, the “growth arrest of D1 cells” value is “only a strong proliferation slow down but not a definitive growth arrest”.
